# Measured values from publication PMC11537054, “A conserved two-component system senses intracellular iron levels and regulates redox balance in Mycobacterium spp” (Microbiology Spectrum, 2024).
# Target: PdtaS (PdtaS-eGFP) (Mycobacterium tuberculosis, UniProt P9WGL5)
# Test: biochemical
# PdtaS (PdtaS-eGFP), sequence (P9WGL5 whole entry): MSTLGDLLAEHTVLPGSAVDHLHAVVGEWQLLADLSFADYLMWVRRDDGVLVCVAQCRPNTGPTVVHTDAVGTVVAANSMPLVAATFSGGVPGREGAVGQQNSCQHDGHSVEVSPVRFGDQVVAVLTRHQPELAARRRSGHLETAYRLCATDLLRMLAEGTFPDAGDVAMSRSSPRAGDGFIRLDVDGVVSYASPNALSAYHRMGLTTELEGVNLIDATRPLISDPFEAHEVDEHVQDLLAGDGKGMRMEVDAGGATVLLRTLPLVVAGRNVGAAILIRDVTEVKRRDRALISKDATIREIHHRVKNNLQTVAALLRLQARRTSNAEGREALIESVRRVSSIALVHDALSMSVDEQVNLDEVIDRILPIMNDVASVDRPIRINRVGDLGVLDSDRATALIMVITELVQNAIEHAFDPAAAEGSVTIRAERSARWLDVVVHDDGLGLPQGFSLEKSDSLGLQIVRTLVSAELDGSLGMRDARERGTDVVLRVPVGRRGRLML
smiles,measurement,value
C=CC1=C(C)C2=Cc3c(C=C)c(C)c4[n]3[Fe]([Cl])[n]3c(c(C)c(CCC(=O)O)c3=CC3=NC(=C4)C(C)=C3CCC(=O)O)=CC1=N2 [hemin],Kd,~0.0172 µM
